In this assay the test system is male ICR mice. The experiment in a line: Formalin Paw Test. The format is in vivo, mouse. The conditions noted are these: 30 mg/kg, intraperitoneal administration; for Early Phase: early/acute phase (0-10 minutes) after 2% formalin into hind paw; for Late Phase: late/tonic phase (10-35 minutes) after 2% formalin into hind paw. The protocol: One test compound or the vehicle was administered to each mouse in each test group (8 mice per group). Non-fasted male ICR mice weighing 23±3 g were used. Test compounds were administered at a concentration of 3 mg/kg, 10 mg/kg, 15 mg/kg, 30 mg/kg, 60 mg/kg, 100 mg/kg, 200 mg/kg or 300 mg/kg; morphine was administered at a concentration of 5 mg/kg; and acetaminophen was administered at a concentration of 200 mg/kg. The control group received the vehicle (5% DMSO/40% PEG400/20% HPbCD/Saline). After 30 or 60 minutes, a 2% formalin solution (0.02 mL) was injected into one hind paw (sub-plantar) of each mouse. Responses were measured every 5 minutes after the formalin injection for 35 minutes.
The results in Table A are for intraperitoneal administration. In Table A, ‘A’ designates <70 licks/sec, ‘B’ designates ≥70 licks/sec and <165 licks/sec, and ‘C’ designates ≥165 licks/sec.

Turning to `NC1CC(F)(F)C1` [Compound 2], the “Early Phase” value was “B (‘B’ designates ≥70 licks/sec and <165 licks/sec)”; the “Late Phase” value was “B (‘B’ designates ≥70 licks/sec and <165 licks/sec)”.

On to `NCC1CC(F)(F)C1` [Compound 6], for which the “Early Phase” value was “B (‘B’ designates ≥70 licks/sec and <165 licks/sec)”; the “Late Phase” value is “B (‘B’ designates ≥70 licks/sec and <165 licks/sec)”.

For the compound `NC1CCC(F)(F)C1` (centres unmarked) [Compound 8], the “Early Phase” value was “B (‘B’ designates ≥70 licks/sec and <165 licks/sec)”; the “Late Phase” value was “B (‘B’ designates ≥70 licks/sec and <165 licks/sec)”.

In the case of `NC1CCC(F)(F)CC1` [Compound 9], the “Early Phase” value is listed as “A (‘A’ designates <70 licks/sec)” and the “Late Phase” value is recorded as “A (‘A’ designates <70 licks/sec)”.

For the compound `NC1CCCC(C(F)(F)F)C1` (centres unmarked) [Compound 10], the “Early Phase” value is “A (‘A’ designates <70 licks/sec)” and the “Late Phase” value is reported as “A (‘A’ designates <70 licks/sec)”.

Turning to `NC1CCCCCC1` [Compound 11], the “Early Phase” value is on record as “A (‘A’ designates <70 licks/sec)” and the “Late Phase” value is “C (‘C’ designates ≥165 licks/sec)”.

For the compound `NC1CC2(C1)CC(N)C2` (centres unmarked) [Compound 13], the “Early Phase” value was “B (‘B’ designates ≥70 licks/sec and <165 licks/sec)”; the “Late Phase” value was “B (‘B’ designates ≥70 licks/sec and <165 licks/sec)”.

On to `NC1CC2(C1)CC(O)C2` (centres unmarked) [Compound 14], for which the “Early Phase” value is “B (‘B’ designates ≥70 licks/sec and <165 licks/sec)”; the “Late Phase” value was “B (‘B’ designates ≥70 licks/sec and <165 licks/sec)”.

Turning to `NC12CCC(C(F)(F)F)(CC1)CC2` [Compound 18], the “Early Phase” value was “B (‘B’ designates ≥70 licks/sec and <165 licks/sec)”; the “Late Phase” value was “B (‘B’ designates ≥70 licks/sec and <165 licks/sec)”.

In the case of `CC12CC3CC(C)(C1)CC(N)(C3)C2` [Compound 19], the “Early Phase” value was “A (‘A’ designates <70 licks/sec)” and the “Late Phase” value is listed as “A (‘A’ designates <70 licks/sec)”.

`NC12CC3CC(C1)CC(C(F)(F)F)(C3)C2` [Compound 20]: the “Early Phase” value is listed as “A (‘A’ designates <70 licks/sec)” and the “Late Phase” value is on record as “A (‘A’ designates <70 licks/sec)”.

`N[C@H]1C[C@@H](O)C1` [cis-1]: the “Early Phase” value was “B (‘B’ designates ≥70 licks/sec and <165 licks/sec)”; the “Late Phase” value was “C (‘C’ designates ≥165 licks/sec)”.

Turning to `N[C@H]1C[C@H](O)C1` [trans-1], the “Early Phase” value is “B (‘B’ designates ≥70 licks/sec and <165 licks/sec)”; the “Late Phase” value is reported as “C (‘C’ designates ≥165 licks/sec)”.

(Values after patent US20190060257A1, “ANALGESIC COMPOUNDS” (ZENO ROYALTIES & MILESTONES, LLC, priority 2016, published 2019).)
